Drawing on PubChem BioAssay (NCI), this text covers GI50 and TGI for 14 molecules.

Test systems include SF-539 CNS; EKVX NSCLC; SF-268 CNS; HCT-15 colon; MALME-3M melanoma; HCC-2998 colon; IGROV1 ovarian; ACHN renal; TK-10 renal; MDA-N.
What all share (experiment): inhibition of tumour cell growth, NCI panel, 48 h

Values joined by “and” are separate entries in the source; they are usually repeats but may differ in a detail not shown here. Identical values can stand only once.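 Briefly, cells in 96-well plates were exposed to five compound concentrations for 48 h, and endpoints were estimated by linear interpolation. GI50: concentration for 50% inhibition of growth. TGI is the concentration that stops growth completely.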

As for `CCC1(OC(=O)CN)C(=O)OCc2c1cc1n(c2=O)Cc2cc3cc4c(cc3nc2-1)OCO4` (stereo not given), the GI50 in the experiment on SF-539 CNS is less than 0.01 µM; in the experiment with EKVX NSCLC it was 0.0106 µM; in the experiment on SF-268 CNS, less than 0.01 µM; with HCT-15 colon, 0.126 µM and 0.0483 µM; in the experiment on MALME-3M melanoma it was 0.287 µM; in the experiment with HCC-2998 colon, 0.101 µM. Besides, the GI50 in the experiment with IGROV1 ovarian was 0.0975 µM and 0.0367 µM. Besides, the TGI with SF-539 CNS is 0.0161 µM and 0.0165 µM; with EKVX NSCLC it was 0.495 µM; in the experiment on SF-268 CNS, more than 100 µM; in the experiment on HCT-15 colon, 26.8 µM and 10.2 µM; with MALME-3M melanoma, 1.42 µM; in the experiment on HCC-2998 colon, 1.08 µM. Moreover, the TGI with IGROV1 ovarian is 1.55 µM and 0.527 µM.

`Cn1c(=O)n(CC2CS2)c2ccccc21` (stereo not given): the TGI with ACHN renal, with TK-10 renal, with SF-539 CNS, in the experiment with EKVX NSCLC, in the experiment with SF-268 CNS and with HCT-15 colon was more than 100 µM each time. Besides, the TGI in the experiment with MALME-3M melanoma, with HCC-2998 colon and with IGROV1 ovarian was more than 100 µM in each case.

On to `C[C@]12CCC(=O)C=C1CC[C@@H]1[C@@H]2[C@@H](O)C[C@@]2(C)[C@H]1CC[C@]2(O)C(=O)COC(=O)CCC1CCCC1`, for which the TGI in the experiment on ACHN renal, in the experiment on TK-10 renal, with SF-539 CNS, in the experiment with EKVX NSCLC, in the experiment on SF-268 CNS and with HCT-15 colon was more than 100 µM throughout. The TGI with MALME-3M melanoma, with HCC-2998 colon and with IGROV1 ovarian was more than 100 µM in each case.

Take `COc1cc2oc(=O)cc(C)c2c(OC)c1OC(C)=O`: the TGI in the experiment with ACHN renal, in the experiment on TK-10 renal, in the experiment on EKVX NSCLC, in the experiment with SF-268 CNS, in the experiment with HCT-15 colon and in the experiment on MALME-3M melanoma was more than 100 µM each time. Also, the TGI in the experiment with MDA-N and in the experiment on IGROV1 ovarian was more than 100 µM in each case.

With `COc1cc(CNC(=S)CCCCCCCCCCC(C)C)ccc1O`, the TGI in the experiment on ACHN renal, with TK-10 renal, with SF-539 CNS, in the experiment on EKVX NSCLC, in the experiment with SF-268 CNS and in the experiment with HCT-15 colon was more than 100 µM in each case. The TGI in the experiment on MALME-3M melanoma, with HCC-2998 colon and in the experiment on IGROV1 ovarian was more than 100 µM throughout.

Consider `C[PH+](c1nc2ccccc2nc1[PH+](C)C(C)(C)C)C(C)(C)C.C[PH+](c1nc2ccccc2nc1[PH+](C)C(C)(C)C)C(C)(C)C.[Au+].[Cl-]` (stereo not given), for which the GI50 is 0.113 µM in the experiment with ACHN renal; 0.0431 µM in the experiment with TK-10 renal; 0.053 µM with SF-539 CNS; 0.0384 µM in the experiment with SF-268 CNS; 0.0263 µM with MALME-3M melanoma; 0.0296 µM in the experiment on HCC-2998 colon. The TGI in the experiment on ACHN renal came out at 0.835 µM; in the experiment on TK-10 renal, 1.13 µM; in the experiment on SF-539 CNS it was 1.14 µM; in the experiment on SF-268 CNS, 1.35 µM; in the experiment on MALME-3M melanoma, 0.0811 µM; in the experiment with HCC-2998 colon, 0.302 µM.

Take `CCOC(=O)c1c(N)sc2c1C(C(=O)OCC)CCC2` (stereo not given): the TGI in the experiment with ACHN renal, in the experiment on TK-10 renal, in the experiment with EKVX NSCLC, with HCT-15 colon, in the experiment with MALME-3M melanoma and with MDA-N was more than 100 µM throughout. Besides, the TGI with HCC-2998 colon and in the experiment with IGROV1 ovarian was more than 100 µM in each case.

For `Cc1cn(CCOCCOC(=O)NC(CCCNC(N)=O)C(=O)O)c(=O)[nH]c1=O` (stereo not given), the TGI with ACHN renal, in the experiment on TK-10 renal, in the experiment on SF-539 CNS, with EKVX NSCLC, in the experiment on SF-268 CNS and in the experiment with HCT-15 colon was more than 100 µM each time. Also, the TGI with MDA-N, in the experiment on HCC-2998 colon and in the experiment on IGROV1 ovarian was more than 100 µM each time.

In the case of `NNC(=O)Cn1ccnn1`, the TGI in the experiment with ACHN renal, in the experiment with TK-10 renal, in the experiment on EKVX NSCLC, with SF-268 CNS, with HCT-15 colon and in the experiment with MALME-3M melanoma was more than 100 µM each time. The TGI in the experiment with HCC-2998 colon and in the experiment on IGROV1 ovarian was more than 100 µM each time.

For the molecule `Cc1nc2cccc(F)c2c(=O)n1-c1nnc(C(F)(F)F)s1`, the TGI in the experiment on ACHN renal, with TK-10 renal, with SF-539 CNS, in the experiment on EKVX NSCLC, in the experiment with SF-268 CNS and in the experiment with HCT-15 colon was more than 10 µM each time. Besides, the TGI with MDA-N, in the experiment on HCC-2998 colon and in the experiment with IGROV1 ovarian was more than 10 µM in each case.

Turning to `Nc1ccc2c(c1)NC(=O)[C@@H]1CCCN1C2=O`, the TGI with ACHN renal, in the experiment on TK-10 renal, with SF-539 CNS, with EKVX NSCLC, with SF-268 CNS and in the experiment on HCT-15 colon was more than 100 µM in each case. Moreover, the TGI in the experiment with MDA-N, in the experiment on HCC-2998 colon and with IGROV1 ovarian was more than 100 µM each time.

With `CC(C)(C)C(=O)N1CCN(C=O)C1=S`, the TGI in the experiment on ACHN renal, in the experiment with TK-10 renal, in the experiment with SF-539 CNS, in the experiment with EKVX NSCLC, in the experiment on SF-268 CNS and in the experiment on HCT-15 colon was more than 100 µM in each case. Further, the TGI in the experiment with MALME-3M melanoma, in the experiment on HCC-2998 colon and in the experiment with IGROV1 ovarian was more than 100 µM throughout.

Turning to `COC(=O)/C=C1\C(=O)C=C2[C@@H]3C[C@H]4C[C@H](CC[C@@]4(C)N21)C3(C)NC(C)=O` (stereo not given in full), the TGI was 46 µM in the experiment on ACHN renal; 33.9 µM in the experiment with TK-10 renal; 9.54 µM in the experiment on SF-539 CNS; 30.6 µM with EKVX NSCLC; 22.9 µM with SF-268 CNS; more than 52.7 µM in the experiment with HCT-15 colon. The TGI was 33.4 µM in the experiment with MDA-N, more than 64.9 µM in the experiment with HCC-2998 colon and 40.7 µM with IGROV1 ovarian.

Turning to `CC1=CC[C@](C)(O)[C@@]2(C)CC[C@H]3C(=C(C)C)C(=O)C[C@]3(C)C[C@H]12`, the TGI with ACHN renal is more than 50 µM; in the experiment on TK-10 renal, more than 50 µM; in the experiment on SF-539 CNS, more than 50 µM; with EKVX NSCLC, more than 50 µM; in the experiment with SF-268 CNS, more than 50 µM; in the experiment with HCT-15 colon, 46.2 µM. The TGI in the experiment with HCC-2998 colon and with IGROV1 ovarian was more than 50 µM in each case.
